Measured values taken from patent US20250250308A1, “METHODS AND COMPOSITIONS WITH ANTIFUNGAL ACTIVITY” (priority 2022, published 2025).
“Also recorded” adds a separate entry of the source.

B1: EntV: 68 amino acid active C-terminal form of the E. faecalis bacteriocin EntV (SEQ ID NO: 14) (protein, listed as Enterococcus faecalis)
chain: LGSCVANKIKDEFFAMISISAIVKAAQKKAWKELAVTVLRFAKANGLKTNAIIVAGQLALWAVQCGLS

Legend:
C. albicans [1] = test: Intravenous (disseminated candidiasis) infection model, survival; format: in vivo, mouse; conditions: C. albicans pre-incubated with 100 nM for two hours prior to IV injection
From the text: The wild-type 12-mer is protective in a systemic mouse model of C. albicans infection. Systemic bloodstream infections by C. albicans are the most life-threatening to patients. Mortality rates from disseminated candidiasis exceed 40% and new treatments are in dire need. Since EntV impairs hyphal morphogenesis and biofilm formation rather than killing C. albicans (Graham et al., 2017), it was unclear if EntV and EntV derivatives would be protective in a systemic infection model. To increase the chances of observing an effect, C. albicans were pre-incubated with 100 nM of EntV or the 12-mer for two hours prior to intravenous (IV) injection of 1×10^5 CFU. […] The median survival of animals injected with C. albicans alone was 7.5 days and all animals had expired by 11 days.
Intravenous infection model. The disseminated candidiasis model was performed as described (Miramon and Lorenz, 2016; Williams and Lorenz, 2020). C. albicans SC5314 was grown overnight in YPD at 30° C., then diluted to a very low concentration and grown in a second overnight. The late-log phase culture was collected by centrifugation, washed in PBS, and diluted to 5×10^6 cells/ml in PBS containing vehicle (0.01% DMSO) or 100 nM EntV or the 12-mer peptide and incubated for 2 hours at room temperature. […] Animals were monitored at least twice daily for 21 days for signs of moribundity.

C. albicans [2] = test: Mouse OPC (oropharyngeal candidiasis) model; format: in vivo
Experimental: Mouse OPC model. The efficacy of EntV fragments were tested in the OPC model as described (Graham et al., 2017; Solis and Filler, 2012). Mice were immunosuppressed by injecting 225 mg/kg cortisone acetate subcutaneously 1 d before inoculation, and subsequently on days 1 and 3 of the infection. Group size was 6-8. To prepare the inoculum, 1 ml of C. albicans (SC5314) overnight culture grown at 30° C. in YPD broth was washed twice in PBS before resuspension in sterile Hanks' balanced salt solution (HBSS) at a concentration of 1×10^6 cells/mL. Calcium alginate swabs were soaked in this inoculum for 5 minutes prior to inoculation. Mice were anesthetized using ketamine and xylazine and placed on pre-warmed isothermal pads and the swabs were placed sublingually for 75 min. Mice were given additional doses of ketamine (50 mg/kg), as necessary. After inoculation, mice were given drinking water with EntV fragments or DMSO (0.01%) in the drinking water ad libitum. Mice were euthanized at 5 d after inoculation, unless noted. The tongues were excised and cut in half laterally for tissue histology and assessment of fungal burden.
For tissue histology the tongue sample was placed in 10% zinc-buffered formalin overnight and stored in 80% ethanol, before embedding in paraffin. For each tongue, 5 μm sections were prepared using a Leica microtome and stained using Periodic Acid-Schiff (PAS) stain. Epithelial invasion was measured from 40× images taken of the entire tissue section of each tongue half with the total area of epithelium and infected epithelium were measured using ImageJ (version 1.6). Measurements were totaled and expressed as a percentage of total infected epithelium relative to the entire epithelial area (Graham et al., 2017; Moyes et al., 2016).
For examination of fungal burden, qPCR was used by amplifying a 269-bp fragment of the internal transcribed spacer 2 (ITS2) between the 5.8S and 28S ribosomal RNA genes of C. albicans (Graham et al., 2017; Khot et al., 2009). DNA was extracted from homogenized tongue tissue using the Yeast DNA Extraction Kit (Thermo Scientific) according to the protocol with minor modifications. The ITS2 fragment was amplified by qPCR was performed with a CFX96 Real-Time System with a C1000 Touch thermal cycler (BioRad). C. albicans gDNA was quantified using FastStart Universal SYBR Green master mix with ROX (Roche). To screen for contamination and background fluorescence during the qPCR amplification, no template controls were used.

[3] = test system: Lactobacillus sakei ATCC 15521; test: Lactobacillus MIC assay (growth in liquid culture); format: cell-based
Experimental: FIG. 8: EntV fragments have no inhibitory activity against Lactobacillus sakei. L. sakei was cultured in Lactobacilli MRS broth overnight and diluted 1/10 into fresh medium to which EntV and EntV fragments were added at various concentrations. After 24 hours of growth at 30° C., the OD625 readings were taken.
Lactobacillus MIC Assay. For this assay, Lactobacillus sakei ATCC 15521 (Torriani et al., 1996) was used following the methodology as described with a few modifications (Chang et al., 2011). Briefly L. sakei was grown in Lactobacilli MRS broth (Difco, Detroit, MI, USA) for 18 h at 30° C. without agitation (Malheiros et al., 2015). Following adjustment to a concentration of 1×10^6 cells/ml, cells were diluted 1:10 into fresh MRS medium containing the indicated concentrations of EntV fragments. After 24 hours of growth at 30° C. without agitation, OD625 readings were taken using a BioTek Cytation5 plate reader. Readings of blanks (containing fresh MRS medium) were subtracted from sample wells. Three technical replicates were averaged, and the experiment was repeated three times.

C. albicans [4] = test: C. albicans adhesion assay (polystyrene plates, crystal violet); format: cell-based; conditions: vs. DMSO control
Experimental: This, like many manifestations of Candida infections, requires adhesion of the fungal cell to surfaces, both biotic and abiotic, whereupon biofilm structures are commonly formed. A model in which binding to plastic surfaces is a measure of the initial stage of biofilm differentiation. In this assay, cells are incubated in polystyrene 96 well plates with the peptides in PBS for one hour and then overlaid with artificial saliva media for 90 minutes before washing and quantitation of adhesion using crystal violet.
C. albicans adhesion assays. The C. albicans adhesion assays were performed using similar techniques as described previously (Gulati et al., 2018). C. albicans strains were grown in YPD broth for 18 h at 30° C. with agitation and then sub-cultured for 4 h in the same conditions. Cells were then collected by centrifugation, washed twice in PBS, and adjusted to a concentration of 1×10^7 cells/ml (measured with Countess II, Life Technologies) in PBS treated with the indicated concentrations of test compounds. The cell suspension was incubated for 1 h at 30° C. with agitation. […]
The adhered cell layer was then stained for 20 minutes with 40 μl of 0.08% crystal violet solution (diluted, Sigma). […] The optical density at 595 nm (OD595) was measured using a Synergy H1 plate reader (BioTek) with Gen5 version 3.08 software (BioTek).

[5] = 10 nM and 1 nM in drinking water
[6] = 100 nM in drinking water for 5 days following inoculation
[7] = 100 nM starting at day three, sacrificed on day five

| Molecule | Animals alive at end of experiment (day 22) (C. albicans [1]) | Epithelial invasion (C. albicans [2]; [5]) | Fungal burden on the tongue (C. albicans [2]; [5]) | Fungal burden (C. albicans [2]; 50 nM in drinking water) | Hyphal invasion (C. albicans [2]; 50 nM in drinking water) | Hyphal invasion relative to fluconazole (C. albicans [2]; 100 nM and 500 nM vs. 4 μg/mL fluconazole) | Fungal burden in the tongue (C. albicans DNA by qPCR) (C. albicans [2]; [6]) | Hyphal (epithelial) invasion of the tongue (C. albicans [2]; 100 nM in drinking water for 5 days following inoculation, listed as 12-mer) | Fungal burden, treatment of established infection (C. albicans [2]; [7]) | Hyphal invasion, treatment of established infection (C. albicans [2]; [7]) | Fungal burden relative to fluconazole (C. albicans [2]; 100 nM vs. 4 μg/mL fluconazole, day 5) | Antibacterial (bacteriocin) activity against L. sakei ([3]; various concentrations, 24 hours) | Adhesion of C. albicans to polystyrene (C. albicans [4]) | Lowest concentration abrogating growth of L. sakei ([3]; liquid culture, 24 hours at 30° C., OD625) [nM] |
| --- | --- | --- | --- | --- | --- | --- | --- | --- | --- | --- | --- | --- | --- | --- |
| VAGQLALWAVQC [12aa] | about half the animals were still alive | the reduction in invasion remains dramatic | only a slight reduction in fungal burden on the tongue | loss of efficacy in terms of fungal burden | still a significant lowering of hyphal invasion | slightly less prevalent | equally effective | at least as effective as the full length EntV; also recorded: most reduced | significantly less fungal burden compared to both groups of untreated animals | The same patterns were observed | even more effective at reducing fungal burden than 4 μg/mL fluconazole | no longer had bacteriocin activity | as effective in protecting against C. albicans infection in the worm model and inhibiting surface adhesion as full-length EntV |  |
| B1 | about half the animals were still alive |  |  |  |  |  | significantly reduced the fungal burden |  |  |  |  |  | significantly reduced adhesion to polystyrene | ≤ 10 |
